Data reported in article PMC6263166 (The protein journal, 2011).
Where two headings read alike, the source gives them in different places. Each block holds one compound with its values, some of them ahead of it.

Legend:
[1] = biological target: T1, CYP1A2 (Homo sapiens, UniProt P05177); conditions: for concentrations at which hCYP1A2 was significantly inhibited: p < 0.05 compared to DMSO control, tested 0.005-1.5 μM
T1 sequence (P05177 1-516): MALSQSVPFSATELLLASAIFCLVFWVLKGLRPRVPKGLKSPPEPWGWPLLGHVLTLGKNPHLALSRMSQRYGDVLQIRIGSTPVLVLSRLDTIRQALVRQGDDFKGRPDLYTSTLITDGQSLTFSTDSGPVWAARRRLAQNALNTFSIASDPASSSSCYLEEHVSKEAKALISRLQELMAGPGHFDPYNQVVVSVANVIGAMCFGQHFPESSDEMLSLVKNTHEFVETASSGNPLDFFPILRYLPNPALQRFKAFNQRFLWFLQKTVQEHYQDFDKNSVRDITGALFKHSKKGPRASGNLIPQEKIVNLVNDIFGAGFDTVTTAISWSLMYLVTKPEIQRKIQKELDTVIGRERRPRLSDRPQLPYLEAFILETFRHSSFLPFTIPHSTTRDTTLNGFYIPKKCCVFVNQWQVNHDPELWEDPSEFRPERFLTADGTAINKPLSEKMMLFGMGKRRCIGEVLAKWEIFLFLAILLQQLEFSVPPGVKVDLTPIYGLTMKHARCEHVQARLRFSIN

[2] = biological target: T1, CYP1A2; experiment: biochemical
[3] = system: CYP1A2; conditions: cited from earlier work
[4] = biological target: T1, CYP1A2; experiment: Inhibition matrix assay; format: biochemical
[5] = system: CYP1A2; conditions: human liver microsomes, ethoxyresorufin as substrate; cited from earlier work
[6] = biological target: T1, CYP1A2; experiment: NADPH-dependent and GSH- and SOD-independent inactivation; format: biochemical; conditions: 8 μM isopimpinellin
[7] = biological target: T1, CYP1A2; experiment: Irreversibility of inactivation; format: biochemical
[8] = biological target: T1, CYP1A2; experiment: Partition ratio by titration of the enzyme with the inactivator; format: biochemical
[9] = biological target: T1, CYP1A2; experiment: Substrate protection; format: biochemical; conditions: 1.2 μM (KI) isopimpinellin
[10] = biological target: T1, CYP1A2
[11] = biological target: T1, CYP1A2; experiment: in vitro
[12] = human liver microsomes, various substrates

SMILES: O=c1ccc2ccc3occc3c2o1 [angelicin]
significance of hCYP1A2 inhibition ([1]; p < 0.05, tested 0.5-150 μM): significant hCYP1A2 inhibition at all tested concentrations | IC50 [2]: 9600 nM

SMILES: CC(C)=CCOc1c2occc2cc2ccc(=O)oc12 [imperatorin]
Ki [4]: 7 nM | mode of inhibition ([4]; Dixon plots of the kinetics data): mixed inhibition | concentrations at which hCYP1A2 was significantly inhibited [1]: ≥ 5 nM | IC50 [5]: 380 ± 120 nM | IC50 [2]: 20 nM

activity remaining pre- and post-dialysis ([7]; 6.4 μM, one assay with six replicates (assay development)): 24 ± 2% | activity recovered after dialysis ([7]; 8 μM, after 20 h of dialysis): approximately 21% | partition ratio ([8]; 0.25-64 μM, preincubation 30 min, extrapolated from lower ratio data points): 8 | remaining CYP1A2 activity at high inactivator to enzyme ratios ([8]; five highest concentration ratios of isopimpinellin to hCYP1A2): no remaining CYP1A2 activity | activity of hCYP1A2 ([9]; 0 μM methoxyresorufin in preincubation): 31.8% | activity of hCYP1A2 ([9]; 0.4 μM methoxyresorufin in preincubation): 33.9% | activity of hCYP1A2 ([9]; 2.0 μM methoxyresorufin in preincubation): 36.9% | activity of hCYP1A2 ([9]; 10 μM methoxyresorufin in preincubation): 65.4% | concentrations at which hCYP1A2 was significantly inhibited [1]: ≥ 50 nM | t1/2 (time required for half the enzyme molecules to be inactivated) [10]: 2.05 ± 0.22 min | KI (inactivation) [11]: 1200 nM | kinact [11]: 0.00567 s⁻¹ | kinact/KI [11]: 5000 M⁻¹ s⁻¹ | IC50 [2]: 460 nM
SMILES: COc1c2ccoc2c(OC)c2oc(=O)ccc12 [isopimpinellin]
effect of GSH on inactivation ([6]; GSH 250 μM): GSH failed to protect the hCYP1A2 inactivation | effect of SOD on inactivation ([6]; SOD 1000 units): SOD did not prevent hCYP1A2 from inactivation, but rather enhanced the inactivation | effect of NADPH on inactivation ([6]; with and without 250 μM NADPH): the lack of NADPH results in the loss of the inhibitory effect | IC50 [5]: 860 ± 180 nM

Ki [4]: 100 nM | mode of inhibition [4]: mixed inhibition | IC50 [2]: 790 nM
SMILES: Cc1cc2cc3c(C)cc(=O)oc3c(C)c2o1 [trioxsalen, reference compound]
